From US20200221740A1, “TERMINALIA FERDINANDIANA LEAF EXTRACT AND PRODUCTS CONTAINING EXTRACT OF TERMINALIA FERDINANDIANA LEAF” (RISING PHOENIX INDUSTRIES PTY LTD, priority 2017, published 2020)

Columns and labels:
[1] = test system: Shewanella baltica strain OS155; experiment: disc diffusion growth inhibition screening; type: cell-based; settings: S. baltica
Description: (§1) Antibacterial screening: Environmental Shewanella strains: Shewanella putrefaciens strain 200, Shewanella baltica strain OS155, Shewanella frigidimarina strain NCIMB 400 and Shewanella loihica strain PV-4 were used. Antibacterial screening was achieved using a modified peptone/yeast extract (PYE) agar containing: 1 g/L peptone, 1.5 g/L yeast extract, 7.5 g/L NaCl, 1 g/L ammonium persulfate, 2.4 g/L HEPES buffer (pH 7.5) and 16 g/L bacteriological agar. The S. putrefaciens and S. loihica cultures were incubated at 30° C. for 24 h. The S. baltica and S. frigidimarina cultures were incubated at 15° C. for 72 h. All stock cultures were subcultured and maintained in PYE media at 4° C. Evaluation of antibacterial activity: Antibacterial activity screening of the […] fruit and leaf extracts was assessed using a modified disc diffusion assay. […] Discs were infused with 10 μL of the […] fruit and leaf extracts, allowed to dry and placed onto the inoculated plates. The plates were left to stand at 4° C. for 2 h before incubation. Plates inoculated with S. putrefaciens or S. loihica cultures were incubated at 30° C. for 24 h. S. baltica or S. frigidimarina cultures were incubated at 15° C. for 72 h. The diameters of the inhibition zones were measured to the closest whole millimetre. Each assay was completed in at least triplicate. Mean values (±SEM) are reported in this study. Ampicillin discs (10 μg) were obtained and used as positive controls to compare antibacterial activity. Filter discs infused with 10 μL of distilled water were used as a negative control.

[2] = test system: Shewanella loihica strain PV-4; experiment: disc diffusion growth inhibition screening; type: cell-based; settings: PV4, S. loihica, 10 μL extract per disc, ampicillin 10 μg, 30° C. 24 h
Description: as §1

[3] = test system: Shewanella putrefaciens strain 200; experiment: disc diffusion growth inhibition screening; type: cell-based; settings: S. putrefaciens, 10 μL extract per disc, ampicillin 10 μg, 30° C. 24 h
Description: as §1

[4] = test system: Shewanella frigidimarina strain NCIMB 400; experiment: disc diffusion growth inhibition screening; type: cell-based; settings: S. frigidimarina
Description: Antibacterial screening: Environmental Shewanella strains: Shewanella putrefaciens strain 200, Shewanella baltica strain OS155, Shewanella frigidimarina strain NCIMB 400 and Shewanella loihica strain PV-4 were used. Antibacterial screening was achieved using a modified peptone/yeast extract (PYE) agar containing: 1 g/L peptone, 1.5 g/L yeast extract, 7.5 g/L NaCl, 1 g/L ammonium persulfate, 2.4 g/L HEPES buffer (pH 7.5) and 16 g/L bacteriological agar.
The S. putrefaciens and S. loihica cultures were incubated at 30° C. for 24 h. The S. baltica and S. frigidimarina cultures were incubated at 15° C. for 72 h. All stock cultures were subcultured and maintained in PYE media at 4° C.
Evaluation of antibacterial activity: Antibacterial activity screening of the T. ferdinandiana fruit and leaf extracts was assessed using a modified disc diffusion assay. Briefly, 100 μL of each individual Shewanella spp. was grown separately in 20 mL of fresh nutrient broth until an approximate count of 10^8 cells/mL was achieved. A volume of 100 μL of each bacterial suspension was spread onto nutrient agar plates and the extracts were tested for antibacterial activity using 5 mm sterilised filter paper discs. […]
Plates inoculated with S. putrefaciens or S. loihica cultures were incubated at 30° C. for 24 h. […] The diameters of the inhibition zones were measured to the closest whole millimetre. […]

[5] = test system: Artemia franciscana nauplii; experiment: Artemia franciscana nauplii lethality assay; settings: potassium dichromate 1000 μg/mL
Description: Artemia franciscana nauplii toxicity screening: Toxicity was assessed using a modified Artemia franciscana nauplii lethality assay. Briefly, 400 μL of seawater containing ˜53 (mean 52.7, n=125, SD 11.8) A. franciscana nauplii were added to wells of a 48 well plate and immediately used in the bioassay. A volume of 400 μL of the reference toxin or the diluted plant extracts were transferred to the wells and incubated at 25±1° C. under artificial light (1000 Lux). For each plate, a 400 μL seawater negative control was run in triplicate. The wells were assessed at regular intervals and the number of dead counted. The nauplii were deemed dead if no movement of the appendages was observed within 10 seconds. After 24 h, all nauplii were sacrificed and counted to determine the total % mortality per well.
To further quantify the effects of toxin concentration on the initiation of mortality, the extracts were serially diluted in artificial seawater to test across a range of concentrations in the Artemia nauplii bioassay.

Row | Structure (SMILES) | growth inhibitory activity (in words) [1] | zone of inhibition at 10 µg/disc [2] [mm] | zone of inhibition at 10 µg/disc [3] [mm] | growth inhibitory activity (in words) [4] | onset of nauplii death [5] [h] | mortality ([5]; within 5 hours) [%]
1 | CC1(C)S[C@@H]2[C@H](NC(=O)[C@H](N)c3ccccc3)C(=O)N2[C@H]1C(=O)O [ampicillin] | unaffected | 19.6 ± 1.3 | 8.3 ± 0.6 | resistant | – | –
2 | [K+].[K+].[O]=[Cr](=[O])([O-])[O][Cr](=[O])(=[O])[O-] [potassium dichromate] | – | – | – | – | ≤ 3 | 100
